The text below walks through data of patent US20050113274A1, “Hydrocarbyl aminohydrocarbonoates and aminohydrocarbonol hydrocarbonoates as antimicrobial and antiviral agents” (priority 2003, published 2005).

One assay has as its system stratum corneum proteins. The note with it: FIG. 1; compared with control; cited from earlier work.
In the next assay the test system is Candida albicans. Briefly: USP Antimicrobial Preservatives Effectiveness Test, C. albicans. It is filed as cell-based. Conditions: DDAIP formulation of Example 1. The source says:
(§1) Thus, in the presence of Pseudomonas aeruginosa, […], Candida albicans, Streptococcus aureus, and Escherichia coli after 7 days of study less than 10 cfu/ml remained, with Aspergillus niger this value was observed after 21 days of study.

Another assay concerns Escherichia coli. Briefly: USP Antimicrobial Preservatives Effectiveness Test, E. coli. In kind it is cell-based. Conditions: DDAIP formulation of Example 1.
Source text: as §1

Another assay concerns Streptococcus aureus. Briefly: USP Antimicrobial Preservatives Effectiveness Test, S. aureus. In kind it is cell-based. Conditions: DDAIP formulation of Example 1.
Source text: as §1

The subject of another assay is microorganism growth. Put plainly: Visual microorganism growth testing of formulations. It is filed as cell-based. Conditions: room temperature and refrigerator conditions; test period of 2 months. The procedure: Additional formulations (such as in the examples that follow) were prepared and submitted to visual microorganism growth testing at room temperature (RT) and refrigerator conditions. The examples given below constitute some typical samples of various formulations prepared and tested.

The next assay has as its system Aspergillus niger. Put plainly: USP Antimicrobial Preservatives Effectiveness Test, A. niger. The note with it: DDAIP formulation of Example 1. In kind it is cell-based.
Source text: as §1

In a further assay the test system is Pseudomonas aeruginosa. Put plainly: USP Antimicrobial Preservatives Effectiveness Test, P. aeruginosa. In kind it is cell-based. The note with it: DDAIP formulation of Example 1.
Source text: as §1

On to `CCO` [ethanol, reference compound], for which the “number of free thiol groups of stratum corneum proteins (effect on protein domain)” value in the assay on stratum corneum proteins is given as “affects protein domain”.

As for `CCCCCCCCCCCCOC(=O)C(C)N(C)C` (stereo not shown) [DDAIP, Dodecyl 2-(N,N-dimethylamino)propionate], the “C. albicans (cfu/ml), 7 days” value with Candida albicans (7 days) is reported as less than 10 cfu/ml. For the same compound, the “C. albicans (cfu/ml), 14 days” value in the assay on Candida albicans (14 days) is less than 10 cfu/ml. Also, the “C. albicans (cfu/ml), Time Zero” value with Candida albicans (day zero count) came to 3.45E+05 cfu/ml. For the same compound, in the assay on Escherichia coli (7 days), the “E. coli (cfu/ml), 7 days” value was less than 1 cfu/ml. Besides, the “E. coli (cfu/ml), 14 days” value in the assay with Escherichia coli (14 days) was less than 1 cfu/ml. Moreover, the “E. coli (cfu/ml), Time Zero” value in the assay with Escherichia coli (day zero count) is 5.70E+05 cfu/ml. In the assay on Streptococcus aureus (7 days), the “S. aureus (cfu/ml), 7 days” value is given as less than 10 cfu/ml. The “S. aureus (cfu/ml), 14 days” value with Streptococcus aureus (14 days) is reported as less than 10 cfu/ml. Also, the “S. aureus (cfu/ml), 21 days” value with Streptococcus aureus (21 days) is listed as less than 10 cfu/ml. Also, the “S. aureus (cfu/ml), 28 days” value in the assay with Streptococcus aureus (28 days) is reported as less than 10 cfu/ml. In addition, the “S. aureus (cfu/ml), Time Zero” value in the assay on Streptococcus aureus (day zero count) was 6.90E+05 cfu/ml. The “number of free thiol groups of stratum corneum proteins (effect on protein domain)” value with stratum corneum proteins is on record as “effect on the protein domain”. Also, in the assay on microorganism growth, the visual microorganism growth entry is “no growth was observed”. In addition, in the assay on Aspergillus niger (7 days), the “A. niger (cfu/ml), 7 days” value was determined as 1.40E+03 cfu/ml. In addition, the “A. niger (cfu/ml), 14 days” value in the assay on Aspergillus niger (14 days) is reported as 3.00E+02 cfu/ml. Further, in the assay with Aspergillus niger (day zero count), the “A. niger (cfu/ml), Time Zero” value turned out to be 3.05E+05 cfu/ml. The “P. aeruginosa (cfu/ml), 7 days” value with Pseudomonas aeruginosa (7 days) is listed as less than 10 cfu/ml. Besides, the “P. aeruginosa (cfu/ml), 14 days” value in the assay with Pseudomonas aeruginosa (14 days) is reported as less than 10 cfu/ml. Further, the “P. aeruginosa (cfu/ml), 21 days” value with Pseudomonas aeruginosa (21 days) is less than 10 cfu/ml. Moreover, the “P. aeruginosa (cfu/ml), 28 days” value with Pseudomonas aeruginosa (28 days) is reported as less than 10 cfu/ml. Moreover, in the assay with Pseudomonas aeruginosa (day zero count), the “P. aeruginosa (cfu/ml), Time Zero” value is 3.55E+05 cfu/ml.
